Results from the Kinase Knowledgebase extract (Sharma et al. 2016).

What follows are molecules tested against MAPK14 (human) (UniProt Q16539) (assay: Assessment of MAPK14 Kinase Activity).
Chain of MAPK14 (human) (Q16539 whole entry, looked up): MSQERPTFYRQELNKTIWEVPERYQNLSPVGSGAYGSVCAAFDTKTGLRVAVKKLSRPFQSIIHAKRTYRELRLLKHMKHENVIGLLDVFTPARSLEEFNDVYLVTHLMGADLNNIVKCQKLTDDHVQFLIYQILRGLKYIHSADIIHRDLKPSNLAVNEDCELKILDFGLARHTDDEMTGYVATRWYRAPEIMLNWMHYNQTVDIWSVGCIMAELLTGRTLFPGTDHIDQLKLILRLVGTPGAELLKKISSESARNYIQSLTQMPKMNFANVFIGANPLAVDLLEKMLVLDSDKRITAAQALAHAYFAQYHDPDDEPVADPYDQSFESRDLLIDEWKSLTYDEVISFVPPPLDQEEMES
With `COc1ccccc1-c1nc(NC(C)=O)sc1-c1ccncc1` the IC50 was 1300 nM.
In the case of `Cc1cccc(-c2nc(N)sc2-c2ccncc2)c1`, the IC50 is reported as 7.3 nM.
`CC(=O)N(C)c1nc(-c2cccc(C)c2)c(-c2ccncc2)s1` was tested, and the IC50 was 48 nM.
In the case of `CS(=O)(=O)c1ccc(-c2nc(-c3ccc(F)cc3)c(-c3ccncc3)s2)cc1`, the IC50 is reported as 51 nM.
Work on `CC(=O)Nc1nc(-c2ccc(C)cc2)c(-c2ccncc2)s1` yielded an IC50 of 76 nM.
`COc1cccc(-c2nc(NC(C)=O)sc2-c2ccncc2)c1` was tested, and the IC50 was 73 nM.
`CC(=O)Nc1nc(-c2cccc(C)c2)c(-c2ccncc2)s1` gave an IC50 of 8.9 nM.
Molecule `Cc1cccc(-c2nc(-c3ccc([S+](C)[O-])cc3)sc2-c2ccncc2)c1` (centres undefined) has an IC50 of 15 nM.
Molecule `CSc1ccc(-c2nc(-c3cccc(C)c3)c(-c3ccncc3)s2)cc1` has an IC50 of 22 nM.
With `Cc1cccc(-c2nc(-c3ccc(O)cc3)sc2-c2ccncc2)c1` the IC50 was 5.3 nM.
Molecule `CC(=O)Nc1nc(-c2cccc(Cl)c2)c(-c2ccncc2)s1` has an IC50 of 43 nM.
`COc1ccc(-c2nc(NC(C)=O)sc2-c2ccncc2)cc1` gave an IC50 of 74 nM.
Molecule `Cc1cccc(-c2nc(-c3ccccc3)sc2-c2ccncc2)c1` has an IC50 of 200 nM.
`Cc1cccc(-c2nc(C)sc2-c2ccncc2)c1` was tested, and the IC50 was 27 nM.
In the case of `CCc1ccc(-c2nc(-c3cccc(C)c3)c(-c3cc[n+]([O-])cc3)s2)cc1`, the IC50 is reported as 1700 nM.
With `Cc1cccc(-c2nc(C(C)(C)C)sc2-c2ccncc2)c1` the IC50 was 31 nM.
With `Cc1cccc(-c2nc(-c3ccccc3C)sc2-c2ccncc2)c1` the IC50 was 69 nM.
`CC(=O)Nc1nc(-c2cccc(F)c2)c(-c2ccncc2)s1` was tested, and the IC50 was 140 nM.
`CC(=O)Nc1nc(-c2ccccc2Cl)c(-c2ccncc2)s1` showed an IC50 of 260 nM.
`Cc1cccc(-c2nc(-c3ccc(C(=O)O)cc3)sc2-c2ccncc2)c1` gave an IC50 of 210 nM.
Work on `Cc1ccc(-c2nc(-c3cccc(C)c3)c(-c3ccncc3)s2)cc1` yielded an IC50 of 41 nM.
Work on `CC(=O)Nc1nc(-c2ccccc2C)c(-c2ccncc2)s1` yielded an IC50 of 340 nM.
In the case of `CC(=O)Nc1nc(-c2ccc(Cl)cc2)c(-c2ccncc2)s1`, the IC50 is reported as 45 nM.
`Cc1cccc(-c2nc(-c3cccc(C)c3)c(-c3ccncc3)s2)c1` gave an IC50 of 74 nM.
